For data set [1], the system named is Rat2 parental cells. The data set is described as follows: Cell proliferation assay using FACS, parental cells. In kind it is cell-based, rat. The conditions noted are these: 72 h with inhibitor, cells counted by FACS, read-out: Relative IC50. How it is done:
(§1) Stable Rat2 cell pools stably expressing FGFR2-CCDC147 or FGFR2-VCL fusions, respectively, were generated using pExoIN2-based expression plasmids ExoIN2-FGFR2_CCDC147 and pExoIN2-FGFR2_VCL. pExoIN2 was obtained from Trenzyme, (Germany). The latter expression plasmids were introduced into Rat2 cells by electroporation (LONZA Nucleofector II Device/program [X-005], Solution R). 24 h post-transduction, cells were subjected to 1.5 µg/mL puromycin to derive stable expressor cell pools. The FGFR2-CCDC147 sequence used in this example was composed of SEQ ID NO: 16 for the FGFR2 part (nucleic acid 1 to nucleic acid 2574) and SEQ ID NO: 20 for the CCDC147 part (nucleic acid 156 to nucleic acid 3313). The FGFR2-VCL sequence used was composed of SEQ ID NO: 16 for the FGFR2 part (nucleic acid 1 to nucleic acid 2574) and SEQ ID NO: 18 for the VCL part (nucleic acid 2117 to nucleic acid 5482).

Data set [2] has as its system FGFR2-CCDC147 expressing Rat2 cells. The data set can be described thus: Cell proliferation assay using FACS, FGFR2-CCDC147 expressing cells. In kind it is cell-based, rat. The conditions noted are these: 72 h with inhibitor, cells counted by FACS, read-out: Relative IC50. As for the experimental part: (§2) At the end of the incubation period, cells were counted by FACS. IC50 values were calculated in Graphpad Prism 6 using sigmoidal response (variable slope) curve fit.

The test system of data set [3] is FGFR2-VCL expressing Rat2 cells. The data set can be described thus: Cell proliferation assay using FACS, FGFR2-VCL expressing cells. In kind it is cell-based, rat. The conditions noted are these: 72 h with inhibitor, cells counted by FACS, read-out: Relative IC50. As for the experimental part: as §2
Data set [4] has as its system FGFR2-CCDC147 expressing Rat2 cells. The data set can be described thus: Cell proliferation assay using Cell Titer Glo, FGFR2-CCDC147 expressing cells. In kind it is cell-based, rat. To be noted: 72 h with inhibitor, cellular ATP content (Cell Titer Glo), read-out: Relative IC50. As for the experimental part: as §1
(§3) Rat2 cells obtained as per Example 4 (either parental cells or cells expressing FGFR2-VCL or FGFR2-CCDC147 fusion polypeptide) were used in this assay. Cells were seeded in 96 well plates and cultured for 24 h before addition of FGFR inhibitors (the same as in section (1) above). After 72 h of further incubation, cell growth was analyzed by determination of the cellular ATP content (Cell Titer Glo; Promega) using a luminescence plate reader.

Data set [5] relates to Rat2 parental cells. To be noted: read-out: Relative IC50, 72 h with inhibitor, cellular ATP content (Cell Titer Glo). How it is done:
as §1, §3

The subject of the next data set is Rat2-FGFR2-VCL tumor. The data set is described as follows: In vivo sensitivity, subcutaneously implanted Rat2-FGFR2-VCL tumor model. The arrangement: species or system female NMRI nude mice. How it is done: On Day 0, 1×10^6 FGFR2-VCL expressing Rat2 cells in 100 μl PBS were subcutaneously implanted into the left flank of 5-6 week-old female NMRI nude mice (group size of 6 animals).
Primary tumor sizes were measured twice weekly by calipering. Animals were terminated on last day of treatment and tumors weighed at necropsy.

The next data set deals with Rat2-FGFR2-CCDC147 tumor. The data set is described as follows: In vivo sensitivity, subcutaneously implanted Rat2-FGFR2-CCDC147 tumor model. The arrangement: species or system female NMRI nude mice. The conditions noted are these: 30 and 60 mg/kg orally once daily for 14 consecutive days. How it is done: On Day 0, 5×10^6 FGFR2-CCDC147-expressing Rat2 cells in 100 μl PBS were subcutaneously implanted into the left flank of 5-6 week-old female NMRI nude mice (group size of 6 animals). […] Primary tumor sizes were measured twice weekly by calipering. Animals were terminated on last day of treatment and tumors weighed at necropsy.

The test system of data set [6] is FGFR2-VCL expressing Rat2 cells. The data set is described as follows: Cell proliferation assay using Cell Titer Glo, FGFR2-VCL expressing cells. In kind it is cell-based, rat. The conditions noted are these: 72 h with inhibitor, cellular ATP content (Cell Titer Glo), read-out: Relative IC50. How it is done: as §1, §3
For data set [7], the target named is T1, FGFR2-CCDC147 fusion polypeptide (Homo sapiens, UniProt P21802).
T1 construct: CCDC147 (CFAP58) polypeptide part (fusion partner, same polypeptide); expressed in transfected cells; host or cells: HEK293T; the other entry of the earlier key: CFAP58 (Q5T655, Cilia- and flagella-associated protein 58)
T1 sequence (P21802 with tags, fused parts or gaps): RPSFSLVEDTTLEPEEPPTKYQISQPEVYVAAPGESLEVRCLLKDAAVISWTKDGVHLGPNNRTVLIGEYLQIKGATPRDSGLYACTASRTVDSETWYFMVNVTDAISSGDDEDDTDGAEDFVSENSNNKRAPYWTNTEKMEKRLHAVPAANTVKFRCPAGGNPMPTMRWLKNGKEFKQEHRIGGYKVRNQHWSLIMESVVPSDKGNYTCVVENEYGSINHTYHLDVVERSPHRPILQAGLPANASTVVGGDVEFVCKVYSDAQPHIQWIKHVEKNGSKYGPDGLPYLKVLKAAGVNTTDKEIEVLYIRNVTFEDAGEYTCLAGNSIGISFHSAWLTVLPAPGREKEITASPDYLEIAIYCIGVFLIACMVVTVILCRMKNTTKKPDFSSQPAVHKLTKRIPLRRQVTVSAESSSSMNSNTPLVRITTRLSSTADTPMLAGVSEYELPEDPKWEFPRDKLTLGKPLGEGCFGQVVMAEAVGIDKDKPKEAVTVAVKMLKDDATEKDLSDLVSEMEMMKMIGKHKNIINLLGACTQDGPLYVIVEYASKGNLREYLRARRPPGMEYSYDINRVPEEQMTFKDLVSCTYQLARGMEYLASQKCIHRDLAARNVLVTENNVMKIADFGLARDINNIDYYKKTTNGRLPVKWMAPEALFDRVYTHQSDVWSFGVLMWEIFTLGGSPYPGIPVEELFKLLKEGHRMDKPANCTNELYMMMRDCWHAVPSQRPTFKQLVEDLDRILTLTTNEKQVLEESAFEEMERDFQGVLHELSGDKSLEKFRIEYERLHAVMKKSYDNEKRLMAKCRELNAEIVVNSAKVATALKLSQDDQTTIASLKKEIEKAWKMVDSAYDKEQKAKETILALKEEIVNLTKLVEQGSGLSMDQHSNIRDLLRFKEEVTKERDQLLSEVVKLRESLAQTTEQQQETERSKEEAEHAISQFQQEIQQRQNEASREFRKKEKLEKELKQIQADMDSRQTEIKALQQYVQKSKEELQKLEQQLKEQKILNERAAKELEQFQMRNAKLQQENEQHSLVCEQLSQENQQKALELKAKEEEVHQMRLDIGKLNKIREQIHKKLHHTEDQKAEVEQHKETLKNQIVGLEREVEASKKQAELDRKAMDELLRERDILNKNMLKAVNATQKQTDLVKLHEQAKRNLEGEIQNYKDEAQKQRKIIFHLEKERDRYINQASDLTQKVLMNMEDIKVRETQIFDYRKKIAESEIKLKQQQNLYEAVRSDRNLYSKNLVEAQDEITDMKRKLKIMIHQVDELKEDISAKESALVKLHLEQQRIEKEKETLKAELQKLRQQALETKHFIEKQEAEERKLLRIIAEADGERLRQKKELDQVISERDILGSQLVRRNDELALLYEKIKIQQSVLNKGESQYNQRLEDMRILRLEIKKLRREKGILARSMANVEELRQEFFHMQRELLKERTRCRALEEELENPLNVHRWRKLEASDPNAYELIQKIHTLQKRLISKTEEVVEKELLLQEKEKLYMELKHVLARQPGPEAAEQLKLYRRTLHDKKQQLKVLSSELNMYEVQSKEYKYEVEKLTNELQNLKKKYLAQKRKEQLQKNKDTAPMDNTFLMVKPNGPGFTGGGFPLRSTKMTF
The data set is described as follows: Autophosphorylation of FGFR2-CCDC147 in transiently transfected HEK293T cells, sandwich phosphotyrosine ELISA. Type of data set: cell-based. To be noted: FGFR2-CCDC147-expressing HEK293T cells, 1E-05 M, 90 min. From the text:
(§4) In this example, the following sequences were used: the FGFR2-CCDC147 fusion gene was composed of SEQ ID NO: 16 for the FGFR2 part (nucleic acid 1 to nucleic acid 2574) and SEQ ID NO: 20 for the CCDC147 part (nucleic acid 156 to nucleic acid 3313); and the FGFR2-VCL fusion gene was composed of SEQ ID NO: 16 for the FGFR2 part (nucleic acid 1 to nucleic acid 2574) and SEQ ID NO: 18 for the VCL part (nucleic acid 2117 to nucleic acid 5482).
(§5) After treatment, autophosphorylation of the FGFR2 fusion polypeptides was analysed using a sandwich phosphotyrosine ELISA. Each condition was done in duplicates.

Data set [8] has as its target T1, FGFR2-CCDC147 fusion polypeptide. The data set can be described thus: Autophosphorylation of FGFR2-CCDC147 in transiently transfected HEK293T cells, Western blot. In kind it is cell-based. The conditions noted are these: FGFR2-CCDC147-expressing HEK293T cells, 1E-05 M, 90 min.
Text: as §4
(§6) HEK293T cells were transiently transfected with expression plasmids containing either an FGFR2-VCL or an FGFR2-CCDC147 fusion gene, which genes had been supplemented with a C-terminal double myc-tag extension. As a negative control, HEK293T cells were mock-transfected. […] The expression of myc-tagged fusion polypeptide was determined using the anti-myc antibody 9E10 (α-myc), and the phosphorylation analysis was performed with the anti-phospho-tyrosine antibody pY99 (α-pY).

The target of data set [9] is T2, FGFR2-VCL fusion polypeptide (Homo sapiens, UniProt P21802).
T2 construct: VCL polypeptide part (fusion partner, same polypeptide); expressed in transfected cells; host or cells: HEK293T; the other entry of the earlier key: VCL (P18206, Vinculin)
T2 sequence (P21802 with tags, fused parts or gaps): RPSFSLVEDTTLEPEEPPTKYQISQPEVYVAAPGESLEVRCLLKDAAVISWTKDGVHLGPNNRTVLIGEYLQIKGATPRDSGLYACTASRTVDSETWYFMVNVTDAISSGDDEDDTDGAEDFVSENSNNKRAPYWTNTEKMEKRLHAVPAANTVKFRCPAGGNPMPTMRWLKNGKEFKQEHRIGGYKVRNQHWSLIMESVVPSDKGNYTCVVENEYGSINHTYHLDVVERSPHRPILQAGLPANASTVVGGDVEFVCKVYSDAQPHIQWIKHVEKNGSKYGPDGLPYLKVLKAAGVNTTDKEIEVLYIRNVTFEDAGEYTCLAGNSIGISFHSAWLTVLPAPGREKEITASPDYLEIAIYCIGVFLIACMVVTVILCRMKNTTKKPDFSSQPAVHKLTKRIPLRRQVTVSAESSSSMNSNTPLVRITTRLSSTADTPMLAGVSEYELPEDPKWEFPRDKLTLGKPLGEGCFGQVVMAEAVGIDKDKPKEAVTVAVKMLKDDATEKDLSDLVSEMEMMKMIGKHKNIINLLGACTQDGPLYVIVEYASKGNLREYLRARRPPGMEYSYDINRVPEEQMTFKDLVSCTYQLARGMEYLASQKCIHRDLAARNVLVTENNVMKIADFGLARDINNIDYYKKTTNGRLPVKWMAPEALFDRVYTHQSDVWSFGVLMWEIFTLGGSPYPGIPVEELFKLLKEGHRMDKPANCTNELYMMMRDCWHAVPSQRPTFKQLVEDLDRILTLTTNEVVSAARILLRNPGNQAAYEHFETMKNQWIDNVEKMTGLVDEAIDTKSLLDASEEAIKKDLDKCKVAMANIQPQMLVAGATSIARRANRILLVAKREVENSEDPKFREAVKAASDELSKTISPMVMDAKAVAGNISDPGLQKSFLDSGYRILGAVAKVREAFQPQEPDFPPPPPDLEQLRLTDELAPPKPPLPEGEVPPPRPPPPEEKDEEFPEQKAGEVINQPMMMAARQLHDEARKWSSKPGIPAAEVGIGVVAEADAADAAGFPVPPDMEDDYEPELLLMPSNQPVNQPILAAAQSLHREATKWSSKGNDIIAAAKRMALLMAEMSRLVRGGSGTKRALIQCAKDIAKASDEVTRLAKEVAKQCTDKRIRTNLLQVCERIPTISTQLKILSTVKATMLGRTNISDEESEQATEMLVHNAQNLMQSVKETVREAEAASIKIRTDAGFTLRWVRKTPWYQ
The data set can be described thus: Autophosphorylation of FGFR2-VCL in transiently transfected HEK293T cells, sandwich phosphotyrosine ELISA. Type of data set: cell-based. The conditions noted are these: FGFR2-VCL-expressing HEK293T cells, 1E-05 M, 90 min.
Text: as §4, §5

For data set [10], the target named is T2, FGFR2-VCL fusion polypeptide. The data set is described as follows: Autophosphorylation of FGFR2-VCL in transiently transfected HEK293T cells, Western blot. In kind it is cell-based. The conditions noted are these: FGFR2-VCL-expressing HEK293T cells, 1E-05 M, 90 min.
Text: as §4, §6

The text below walks through data of patent US10703798B2, “Methods of cancer therapy by inhibiting fusion polypeptides comprising fibroblast growth factor receptor 2 (FGFR2) and vinculin (VCL)” (DEBIOPHARM INTERNATIONAL SA, priority 2014, dated 2020).

Molecules are shown by their SMILES. pIC50: −log10 of the molar value. Entries after “also recorded” stand apart in the source; their conditions may differ. Read-outs that look alike come from different tables or passages of the source.

For `Cc1nc2cc(-n3ncc(C(=O)c4cc5ccccc5[nH]4)c3N)ccc2[nH]1` [Compound A], the pIC50 is below 5.99 with Rat2 parental cells [1]; 7.83 in data set [2]; 6.64 in data set [3]; 7.13 in data set [4]; below 5.52 in the data set on Rat2 parental cells [5]; 9.28 in data set [6]. The “antitumor efficacy (tumor growth)” value was “Tumor stasis” in the data set with Rat2-FGFR2-VCL tumor (60 mg/kg-treated group, orally once daily for 14 consecutive days); “inhibited tumor growth; also recorded: highly significant and dose-dependent antitumoral efficacy” in the data set on Rat2-FGFR2-VCL tumor (30 and 60 mg/kg orally once daily for 14 consecutive days, established tumors); “inhibited tumor growth; also recorded: highly significant antitumoral efficacy” in the data set with Rat2-FGFR2-CCDC147 tumor (established tumors). Moreover, the results for the “effect on body weight” value in the data set on Rat2-FGFR2-VCL tumor (30 or 60 mg/kg orally once daily for 14 consecutive days) and in the data set on Rat2-FGFR2-CCDC147 tumor were “without significantly affecting body weight” and “no significant effect”, respectively.

With `COC(=O)c1ccc2c(c1)NC(=O)/C2=C(\Nc1ccc(N(C)C(=O)CN2CCN(C)CC2)cc1)c1ccccc1` [Vargatef], the “levels of FGFR phosphorylation (phosphotyrosine ELISA)” value in [7] and in data set [9] was “decreased” throughout. Also, the “autophosphorylation of fusion polypeptide (anti-phospho-tyrosine Western blot)” value is “somewhat more marginally” in data set [8] and “substantially reduced” in [10].
